Test results taken from PMC12598805, “Crystal Structure–Activity Relationship of Some MeO Phenylacrylonitriles: Dual Antimicrobial–Cytotoxic Effects and in Silico Perspectives” (ChemistryOpen, 2025).
Values after ≈ are worked out from the molar mass of the structure shown.

How the values were obtained:
Assay type in all cases: cell-based
[1] = system: Micrococcus luteus (NRRL-B-1018); experiment: Broth microdilution MIC; conditions: NRRLB1018, M.luteus
Procedure: (§1) Micrococcus luteus (NRRL-B-1018) […]
(§2) ATCC: American Type Culture Collection; NRRL: Northern Regional Research Laboratory The compounds 2(a-c) obtained could only be completely solubilised with dimethyl sulphoxide (DMSO) and the highest possible stock solutions of 50 mg.mL-1 were prepared. […]
(§3) 3.1. Determination of Minimum Inhibition Concentration (MIC)
(§4) The minimum inhibition concentration (MIC) values of the compounds 2(a-c) against the test bacteria used in the study were determined according to the broth microdilution method.[1-2] MHB or SDB was used as test medium and bacterial and yeast suspensions were prepared at 0.5 Mc Farland concentration for each test bacteria. Double layer serial dilutions were prepared in "U" type 96-well microtiter plates. Medium+bacteria suspensions containing only medium in the first row, medium+bacteria in the second row and the final concentrations of the synthesised substances in the other rows between 25 mg.mL-1 and […] were added to the wells with a final volume of 200
(§5) μL. Ampicillin, Kanamycin and Amphotericin B standard antibiotics were used as positive controls.
(§6) Bacteria were incubated at 37±0.1 °C and C. albicans at 30±0.1 °C for 24-48 hours and the lowest concentration without growth was determined as MIC. Tests were performed in two parallel runs and mean values were given as a result. […]

[2] = system: Micrococcus luteus (NRRL-B-1018); experiment: Agar diffusion, zone of inhibition; conditions: M.luteus, compounds at 50 mg mL^−1; for zone of inhibition at 50 mg/mL: Micrococcus luteus, NRRLB1018
From the text: (§7) The antibacterial and antifungal activities were reported utilizing the method described by the Clinical & Laboratory Standards Institute.^[ [31], [32] ^] Agar diffusion method was used to determine the antimicrobial activity of the synthesized substances. The media used were mueller hinton agar (MHA) for bacteria and sabouraud‐dextrose agar (SDA) for fungi (Merck), as recommended by the manufacturer.
(§8) The synthesized compounds were initially investigated for their antimicrobial activity to elucidate the potential therapeutic utility against various pathogenic microbes using the agar plate diffusion method. The compounds were tested at a concentration of 50 mg mL^−1, and the antibiotics (ampicillin, kanamycin, and amphotericin B) were used at 5 mg mL^−1. […] K.pneumoniae and B.cereus were resistant to ampicillin, while they were susceptible to kanamycin with inhibition values of 30 and 26 mm, respectively. No antimicrobial activity of the compounds was observed against E.faecalis, S.typhimurium, K.pneumoniae, and for the fungus compared to Amphotericin B (20 mm). […]
as §1
(§9) ATCC: American Type Culture Collection; NRRL: Northern Regional Research Laboratory The compounds 2(a-c) obtained could only be completely solubilised with dimethyl sulphoxide (DMSO) and the highest possible stock solutions of 50 mg.mL-1 were prepared. To these wells 50 μl of the previously prepared substances were transferred using sterile micropipette tips. For comparison, Ampicillin and kanamycin antibiotics for bacteria and Amphotericin B antibiotics for fungus were used as positive controls and DMSO was used as negative control. The prepared petri plates were kept at +4°C for about 1 hour and then the bacterial cultures were incubated at 37°C for 18-24 hours and mould cultures at 27-30°C for 48-72 hours. The zones formed were measured millimetrically with callipers. The experiments were performed with three repetitions. […]

[3] = system: Staphylococcus aureus (ATCC 29213); experiment: Broth microdilution MIC; conditions: ATCC29213, S.aureus
Procedure: Staphylococcus aureus (ATCC 29213) […]
as §2, §3, §4, §5, §6

[4] = system: Enterococcus faecalis (ATCC 29212); experiment: Agar diffusion, zone of inhibition; conditions: ATCC29212, E.faecalis, compounds at 50 mg mL^−1
From the text: as §7, §8
Enterococcus faecalis (ATCC 29212) […]
as §9

[5] = system: Salmonella typhimurium (NRRL-B-4420); experiment: Agar diffusion, zone of inhibition; conditions: Salmonella enterica; S.typhimurium; compounds at 50 mg mL^−1
From the text: as §7, §8
Salmonella typhimurium (NRRL-B-4420) […]
as §9

[6] = system: Bacillus cereus (ATCC-10876); experiment: Agar diffusion, zone of inhibition; conditions: B.cereus, compounds at 50 mg mL^−1; for zone of inhibition at 50 mg/mL: Bacillus cereus, ATCC10876
From the text: as §7
The synthesized compounds were initially investigated for their antimicrobial activity to elucidate the potential therapeutic utility against various pathogenic microbes using the agar plate diffusion method. The compounds were tested at a concentration of 50 mg mL^−1, and the antibiotics (ampicillin, kanamycin, and amphotericin B) were used at 5 mg mL^−1. […] K.pneumoniae and B.cereus were resistant to ampicillin, while they were susceptible to kanamycin with inhibition values of 30 and 26 mm, respectively. No antimicrobial activity of the compounds was observed against E.faecalis, S.typhimurium, K.pneumoniae, and for the fungus compared to Amphotericin B (20 mm).
Bacillus cereus (ATCC-10876) […]
as §9

COc1ccc(C=C(C#N)c2ccccc2)cc1 [2a, 3‐(4‐methoxyphenyl)‐2‐phenylacrylonitrile]
MIC [1]: 6250 µg/mL (≈ 26.6 mM) | zone of inhibition [2]: 14 ± 0.71 mm | zone of inhibition at 50 mg/mL [2]: 14 mm | MIC [3]: 12500 µg/mL (≈ 53.1 mM) | zone of inhibition at 50 mg/mL [4]: < 6 mm | zone of inhibition at 50 mg/mL [5]: < 6 mm | zone of inhibition [6]: 15 ± 2.12 mm | zone of inhibition at 50 mg/mL [6]: 15 mm

COc1ccc(/C=C(\C#N)c2ccc(F)cc2)cc1 [2b]
MIC [1]: 12500 µg/mL (≈ 49.4 mM) | zone of inhibition [2]: 14 ± 0.71 mm | zone of inhibition at 50 mg/mL [2]: 14 mm | MIC [3]: 12500 µg/mL (≈ 49.4 mM) | zone of inhibition at 50 mg/mL [4]: < 6 mm | zone of inhibition at 50 mg/mL [5]: < 6 mm | zone of inhibition [6]: 13 ± 2.83 mm | zone of inhibition at 50 mg/mL [6]: 13 mm

COc1ccc(/C=C(\C#N)c2cc(C(F)(F)F)cc(C(F)(F)F)c2)cc1 [2c]
MIC [1]: 2500 µg/mL (≈ 6.73 mM) | zone of inhibition [2]: 15 ± 0.71 mm | zone of inhibition at 50 mg/mL [2]: 15 mm | MIC [3]: 6250 µg/mL (≈ 16.8 mM) | zone of inhibition at 50 mg/mL [4]: < 6 mm | zone of inhibition at 50 mg/mL [5]: < 6 mm | zone of inhibition [6]: 14 ± 0.71 mm | zone of inhibition at 50 mg/mL [6]: 14 mm
